Source: patent publication US20240050428A1 (Cullgen (Shanghai), Inc., priority 2020, published 2024)
Read-outs that look alike come from different tables or passages of the source.

How the values were obtained:
[1] = system: MV4;11 cells; assay: Cell viability assay (CellTiter-Glo) in MV4;11 cells, alone or with gilteritinib; format: cell-based; settings: Homo sapiens, MV4;11 cells, three days, CellTiter-Glo, read-out: MV4
[2] = system: MOLM-13 cells; assay: Cell viability assay (CellTiter-Glo) in MOLM-13 cells, alone or with gilteritinib; format: cell-based; settings: Homo sapiens, MOLM-13 cells, three days, CellTiter-Glo
[3] = MV4-11, 72 h, compound alone (without gilteritinib), 11 IC50
[4] = MV4-11, 72 h, compound with gilteritinib 10 nM, 11 IC50 gilteritinib
[5] = MOLM-13, 72 h, compound alone (without gilteritinib), read-out: MOLM-13 IC50
[6] = MOLM-13, 72 h, compound with gilteritinib 20 nM, read-out: MOLM-13 IC50 gilteritinib

Compound | IC50 [1, 3] | IC50 [1, 4] | IC50 [2, 5] | IC50 [2, 6] | IC50 ([1]; 72 h, compound alone (without gilteritinib), 11 IC50) | IC50 ([1]; 72 h, compound with gilteritinib 10 nM, 11 IC50 gilteritinib) | IC50 ([2]; 72 h, compound alone (without gilteritinib), read-out: MOLM-13 IC50) | IC50 ([2]; 72 h, compound with gilteritinib 20 nM, read-out: MOLM-13 IC50 gilteritinib)
O=C1CCC(N2Cc3cc(OCCCCC(=O)N4CCC(n5cc(-c6cnc7ccccc7n6)cn5)CC4)ccc3C2=O)C(=O)N1 (stereo not shown) [GS-484, 3-(1-oxo-5-((5-oxo-5-(4-(4-(quinoxalin-2-yl)-1H-pyrazol-1-yl)piperidin-1-yl)pentyl)oxy)isoindolin-2-yl)piperidine-2,6-dione] | > 1000 nM | 100 to 1000 nM | 100 to 1000 nM | 100 to 1000 nM |  |  |  | 
O=C1CCC(N2Cc3cc(OCCC(=O)N4CCC(n5cc(-c6cnc7ccccc7n6)cn5)CC4)ccc3C2=O)C(=O)N1 (stereo not shown) [GS-485, 3-(1-oxo-5-(3-oxo-3-(4-(4-(quinoxalin-2-yl)-1H-pyrazol-1-yl)piperidin-1-yl)propoxy)isoindolin-2-yl)piperidine-2,6-dione] | > 1000 nM | > 1000 nM | > 1000 nM | > 1000 nM |  |  |  | 
O=C1CCC(N2Cc3cc(OCCCN4CCC(n5cc(-c6cnc7ccccc7n6)cn5)CC4)ccc3C2=O)C(=O)N1 (stereo not shown) [GS-492, 3-(1-oxo-5-(3-(4-(4-(quinoxalin-2-yl)-1H-pyrazol-1-yl)piperidin-1-yl)propoxy)isoindolin-2-yl)piperidine-2,6-dione] | > 1000 nM | > 1000 nM | > 1000 nM | > 1000 nM |  |  |  | 
O=C1CCC(N2C(=O)c3ccc(NCCCCCCn4cc(-c5ccccc5)cn4)cc3C2=O)C(=O)N1 (stereo not shown) [GS-496, 2-(2,6-dioxopiperidin-3-yl)-5-((6-(4-phenyl-1H-pyrazol-1-yl)hexyl)amino)isoindoline-1,3-dione] |  |  |  |  | 100 to 1000 nM | 10 to 100 nM | 100 to 1000 nM | 10 to 100 nM
Cc1cccc(-c2cnn(CCCCCCNc3ccc4c(c3)C(=O)N(C3CCC(=O)NC3=O)C4=O)c2)c1 (stereo not shown) [GS-497, 2-(2,6-dioxopiperidin-3-yl)-5-((6-(4-(m-tolyl)-1H-pyrazol-1-yl)hexyl)amino)isoindoline-1,3-dione] | 10 to 100 nM | < 10 nM | 100 to 1000 nM | < 10 nM |  |  |  | 
Cc1cccc(-c2cnn(CCCCCCNc3ccc4c(c3)C(=O)N(C3CCC(=O)NC3=O)C4=O)c2)n1 (stereo not shown) [GS-498, 2-(2,6-dioxopiperidin-3-yl)-5-((6-(4-(6-methylpyridin-2-yl)-1H-pyrazol-1-yl)hexyl)amino)isoindoline-1,3-dione] | 100 to 1000 nM | 10 to 100 nM | 100 to 1000 nM | 10 to 100 nM |  |  |  | 

Continued, in another order:

IC50 [1, 3] | IC50 [1, 4] | IC50 [2, 5] | IC50 [2, 6] | Compound | IC50 ([1]; 72 h, compound alone (without gilteritinib), 11 IC50) | IC50 ([1]; 72 h, compound with gilteritinib 10 nM, 11 IC50 gilteritinib) | IC50 ([2]; 72 h, compound alone (without gilteritinib), read-out: MOLM-13 IC50) | IC50 ([2]; 72 h, compound with gilteritinib 20 nM, read-out: MOLM-13 IC50 gilteritinib)
< 10 nM | < 10 nM | < 10 nM | < 10 nM | O=C(Cc1cccc(N2CCN(c3ccccn3)CC2)c1)NCc1ccc2c(c1)CN(C1CCC(=O)NC1=O)C2=O (stereo not shown) [GS-483, N-((2-(2,6-dioxopiperidin-3-yl)-1-oxoisoindolin-5-yl)methyl)-2-(3-(4-(pyridin-2-yl)piperazin-1-yl)phenyl)acetamide] |  |  |  | 
10 to 100 nM | < 10 nM | > 1000 nM | < 10 nM | O=C1CCC(N2Cc3cc(OCCCCCC(=O)N4CCC(n5cc(-c6cnc7ccccc7n6)cn5)CC4)ccc3C2=O)C(=O)N1 (stereo not shown) [GS-493, 3-(1-oxo-5-((6-oxo-6-(4-(4-(quinoxalin-2-yl)-1H-pyrazol-1-yl)piperidin-1-yl)hexyl)oxy)isoindolin-2-yl)piperidine-2,6-dione] |  |  |  | 
10 to 100 nM | < 10 nM | 10 to 100 nM | < 10 nM | COc1cccnc1-c1cnn([C@H]2C[C@H](CCCNc3ccc4c(c3)C(=O)N(C3CCC(=O)NC3=O)C4=O)C2)c1 (stereo partly drawn) [GS-494, 2-(2,6-Dioxopiperidin-3-yl)-5-((3-(trans-3-(4-(3-methoxypyridin-2-yl)-1H-pyrazol-1-yl)cyclobutyl)propyl)amino)isoindoline-1,3-dione] |  |  |  | 
< 10 nM | < 10 nM | < 10 nM | < 10 nM | O=C1CCC(N2Cc3cc(NC(=O)Cc4cccc(N5CCC(n6cc(-c7cnc8ccccc8n7)cn6)CC5)c4)ccc3C2=O)C(=O)N1 (stereo not shown) [GS-495, N-(2-(2,6-dioxopiperidin-3-yl)-1-oxoisoindolin-5-yl)-2-(3-(4-(4-(quinoxalin-2-yl)-1H-pyrazol-1-yl)piperidin-1-yl)phenyl)acetamide] |  |  |  | 
